Read-outs that look alike come from different tables or passages of the source. Square brackets hold non-standard residues; d marks the D form. Peptide text beside a SMILES is read from it. d2Nal = N[C@H](Cc1ccc2ccccc2c1)C(=O)O; Hyp = O=C(O)[C@@H]1C[C@@H](O)CN1; 2Thi = N[C@@H](Cc1cccs1)C(=O)O; d2Thi = N[C@H](Cc1cccs1)C(=O)O
Columns and labels:
[1] = test system: rat blood pressure; assay: effects on blood pressure in the anesthetized rat (RBP), intraaortic and intravenous bolus; assay type: in vivo
Procedure: The in vivo effects of bradykinin antagonists on blood pressure in the anesthetized rat are determined according to the assay described by Roblero, Ryan and Stewart (Res. Commun. Pathol. Pharmacol. 6:207, 1973). The antagonists also produce inhibition of the bradykinin response when injected as a bolus admixture of bradykinin plus antagonist by either the ia or iv route of administration.

[2] = test system: isolated rat uterus; assay type: cell-based
Procedure: The bradykinin antagonists were assayed on isolated rat uterus in natural or induced estrus and on guinea pig ileum, according to the commonly accepted assay methods for bradykinin and related kinins as described by Trautschold (Handbook of Expt. Pharmacol. Vol 25, Springer Verlag, pp. 53-55, 1970) for inhibition of the myotropic activity of bradykinin. The inhibition potencies, as determined according to the commonly accepted manner described by Schild for antagonists of biologically active compounds (Br. J. Pharmacol. 2:189, 1947), and expressed as pA2 values are determined on isolated rat uterus (RUT) and isolated guinea pig ileum (GPI). In the assays, a dose-response curve is determined for the reference substance bradykinin. The dose of bradykinin which produced a half maximal contraction of tissue is the ED50 dose. An amount of bradykinin equivalent to twice the ED50 dose is administered to the tissue 30 seconds after the start of incubation of the tissue with a dose of antagonist. Doses of antagonist are increased in this protocol until pre-incubation with a dose of antagonist reduces the contraction in response to the double ED50 dose of bradykinin to response of a single ED50 dose of bradykinin. The pA2 value represents the negative logarithm of the molar concentration of antagonist necessary to reduce the response of a double ED50 dose of bradykinin to that of an ED50 dose. One unit of pA2 value represents an order of magnitude change in potency. For comparison, the negative log of the dose of BK, the dose which causes half maximal contraction of the tissues, is commonly known as the pD2 value. The pD2 value for bradykinin is 7.9 on the rat uterus and 7.4 on the guinea pig ileum.

[3] = rat blood pressure, intraaortic bolus
[4] = rat blood pressure, intravenous bolus
[5] = isolated rat uterus, number of tissues in parentheses

N=C(N)NCCC[C@H](NC(=O)[C@H](CCCCN)NC(=O)[C@@H](N)CCCCN)C(=O)N1CCC[C@H]1C(=O)N1CCC[C@H]1C(=O)NCC(=O)N[C@@H](Cc1cccs1)C(=O)N[C@@H](CO)C(=O)N[C@H](Cc1ccccc1)C(=O)N[C@@H](Cc1cccs1)C(=O)N[C@H](CCCNC(=N)N)C(=O)O [Example 44, Lys-Lys-Arg-Pro-Pro-Gly-Thi-Ser-DPhe-Thi-DArg] (H-KKRPPG[2Thi]S[dF][2Thi][dR]-OH)
% DESTR (metabolic breakdown of BK-like agonists in RBP assay) ([1]; rat, in vivo): 0%
RBP-IA: agonist potency as percent of BK potency ([1]; rat, in vivo): 0.2%
RBP-IV: agonist potency as percent of BK potency ([1]; rat, in vivo, iv): 14%

N=C(N)NCCC[C@@H](N)C(=O)N[C@H](Cc1ccc2ccccc2c1)C(=O)N1CCC[C@H]1C(=O)N1CCC[C@H]1C(=O)NCC(=O)N[C@@H](Cc1cccs1)C(=O)N[C@@H](CO)C(=O)N[C@H](Cc1ccccc1)C(=O)N[C@@H](Cc1cccs1)C(=O)N[C@@H](CCCNC(=N)N)C(=O)O [Example 23, DArg-DNal-Pro-Pro-Gly-Thi-Ser-DPhe-Thi-Arg] (H-[dR][d2Nal]PPG[2Thi]S[dF][2Thi]R-OH)
pA2 /RUT (antagonist potency) [2]: 5.8

CC[C@@H](C)[C@@H](NC(=O)[C@H](CCCNC(=N)N)NC(=O)[C@H](Cc1ccccc1)NC(=O)[C@@H](Cc1ccccc1)NC(=O)[C@H](CO)NC(=O)[C@H](Cc1ccccc1)NC(=O)CNC(=O)[C@@H]1CCCN1C(=O)[C@@H]1CCCN1C(=O)[C@@H](N)CCCNC(=N)N)C(=O)N[C@@H](Cc1ccc(O)cc1)C(=O)O [Example 69, Arg-Pro-Pro-Gly-Phe-Ser-DPhe-Phe-Arg-DIle-Tyr] (H-RPPGFS[dF]FR[dI]Y-OH)
RBP-IA: agonist potency as percent of BK potency [1, 3]: 0.3%
RBP-IV: agonist potency as percent of BK potency [1, 4]: 2%
% DESTR (metabolic breakdown of BK-like agonists in RBP assay) ([1]; relative to BK = 100%): 75%

CC[C@H](C)[C@H](NC(=O)[C@H](CCCNC(=N)N)NC(=O)[C@H](Cc1cccs1)NC(=O)[C@@H](Cc1ccccc1)NC(=O)[C@H](CO)NC(=O)[C@H](Cc1cccs1)NC(=O)CNC(=O)[C@@H]1C[C@@H](O)CN1C(=O)[C@@H]1CCCN1C(=O)[C@@H](N)CCCNC(=N)N)C(=O)N[C@@H](Cc1ccc(O)cc1)C(=O)O [Example 67, Arg-Pro-Hyp-Gly-Thi-Ser-DPhe-Thi-Arg-Ile-Tyr] (H-RP[Hyp]G[2Thi]S[dF][2Thi]RIY-OH)
pA2 /RUT: agonist potency as percent of BK potency ([2]; isolated rat uterus): 0.06%

N=C(N)NCCC[C@H](NC(=O)[C@H](CCCCN)NC(=O)[C@@H](N)CCCCN)C(=O)N1CCC[C@H]1C(=O)N1CCC[C@H]1C(=O)NCC(=O)N[C@@H](Cc1cccs1)C(=O)N[C@@H](CO)C(=O)N[C@H](Cc1ccccc1)C(=O)N[C@@H](Cc1cccs1)C(=O)N[C@H](CCCNC(=N)N)C(N)=O [Example 58, Lys-Lys-Arg-Pro-Pro-Gly-Thi-Ser-DPhe-Thi-DArg-NH2] (H-KKRPPG[2Thi]S[dF][2Thi][dR]-NH2)
pA2 /RUT: agonist potency as percent of BK potency [2]: 0.02%
% DESTR (metabolic breakdown of BK-like agonists in RBP assay) ([1]; rat, in vivo): 60%
RBP-IA: agonist potency as percent of BK potency ([1]; rat, in vivo): 0.2%
RBP-IV: agonist potency as percent of BK potency ([1]; rat, in vivo, iv): 3%

N=C(N)NCCC[C@H](NC(=O)[C@H](Cc1ccccc1)NC(=O)[C@@H](Cc1ccccc1)NC(=O)[C@H](CO)NC(=O)[C@H](Cc1ccccc1)NC(=O)CNC(=O)[C@@H]1CCCN1C(=O)[C@@H]1CCCN1C(=O)[C@@H](N)CCCNC(=N)N)C(=O)O [Example 1, Arg-Pro-Pro-Gly-Phe-Ser-DPhe-Phe-Arg] (H-RPPGFS[dF]FR-OH)
pA2 /RUT (antagonist potency) [2, 5]: 5.0

N=C(N)NCCC[C@H](NC(=O)[C@H](Cc1cccs1)NC(=O)[C@@H](Cc1ccccc1)NC(=O)[C@H](CO)NC(=O)[C@H](Cc1cccs1)NC(=O)CNC(=O)[C@@H]1CCCN1C(=O)[C@@H]1CCCN1C(=O)[C@@H](N)CCCNC(=N)N)C(N)=O [Example 51, Arg-Pro-Pro-Gly-Thi-Ser-DPhe-Thi-Arg-NH2] (H-RPPG[2Thi]S[dF][2Thi]R-NH2)
pA2 /RUT: agonist potency as percent of BK potency [2]: 0.02%
% DESTR (metabolic breakdown of BK-like agonists in RBP assay) ([1]; rat, in vivo): 52%
RBP-IA: agonist potency as percent of BK potency ([1]; rat, in vivo): 0.05%
RBP-IV: agonist potency as percent of BK potency ([1]; rat, in vivo, iv): 2%

CC[C@@H](C)[C@@H](NC(=O)[C@H](CCCNC(=N)N)NC(=O)[C@H](Cc1cccs1)NC(=O)[C@@H](Cc1ccccc1)NC(=O)[C@H](CO)NC(=O)[C@H](Cc1cccs1)NC(=O)CNC(=O)[C@@H]1C[C@@H](O)CN1C(=O)[C@@H]1CCCN1C(=O)[C@@H](N)CCCNC(=N)N)C(=O)N[C@@H](Cc1ccc(O)cc1)C(=O)O [Example 73, Arg-Pro-Hyp-Gly-Thi-Ser-DPhe-Thi-Arg-DIle-Tyr] (H-RP[Hyp]G[2Thi]S[dF][2Thi]R[dI]Y-OH)
pA2 /RUT: agonist potency as percent of BK potency ([2]; isolated rat uterus): 0.04%

N=C(N)NCCC[C@H](NC(=O)[C@H](Cc1cccs1)NC(=O)[C@@H](Cc1ccccc1)NC(=O)[C@H](CO)NC(=O)[C@H](Cc1cccs1)NC(=O)CNC(=O)[C@@H]1CCCN1C(=O)[C@@H]1CCCN1C(=O)[C@@H](Cc1ccc2ccccc2c1)NC(=O)[C@H](N)Cc1ccc2ccccc2c1)C(=O)O [Example 25, DNal-DNal-Pro-Pro-Gly-Thi-Ser-DPhe-Thi-Arg] (H-[d2Nal][d2Nal]PPG[2Thi]S[dF][2Thi]R-OH)
pA2 /RUT (antagonist potency) [2, 5]: 5.6

CC[C@@H](C)[C@@H](NC(=O)[C@H](CCCNC(=N)N)NC(=O)[C@H](Cc1cccs1)NC(=O)[C@@H](Cc1ccccc1)NC(=O)[C@H](CO)NC(=O)[C@H](Cc1cccs1)NC(=O)CNC(=O)[C@@H]1CCCN1C(=O)[C@@H]1CCCN1C(=O)[C@@H](N)CCCNC(=N)N)C(=O)N[C@@H](Cc1ccc(O)cc1)C(=O)O [Example 71, Arg-Pro-Pro-Gly-Thi-Ser-DPhe-Thi-Arg-DIle-Tyr] (H-RPPG[2Thi]S[dF][2Thi]R[dI]Y-OH)
RBP-IA: agonist potency as percent of BK potency [1, 3]: 0.2%
RBP-IV: agonist potency as percent of BK potency [1, 4]: 2%
% DESTR (metabolic breakdown of BK-like agonists in RBP assay) ([1]; relative to BK = 100%): 55%

N=C(N)NCCC[C@H](NC(=O)[C@H](Cc1ccccc1)NC(=O)[C@@H](Cc1cccs1)NC(=O)[C@H](CO)NC(=O)[C@H](Cc1ccccc1)NC(=O)CNC(=O)[C@@H]1C[C@@H](O)CN1C(=O)[C@@H]1CCCN1C(=O)[C@H](N)Cc1cccs1)C(=O)O [Example 34, DThi Pro-Hyp-Gly-Phe-Ser-DThi-Phe-Arg] (H-[d2Thi]P[Hyp]GFS[d2Thi]FR-OH)
pA2 /RUT: activity class ([2]; isolated rat uterus, not quantitated): 0

N=C(N)NCCC[C@H](NC(=O)[C@H](Cc1cccs1)NC(=O)[C@@H](Cc1ccccc1)NC(=O)[C@H](CO)NC(=O)[C@H](Cc1cccs1)NC(=O)CNC(=O)[C@@H]1CCCN1C(=O)[C@@H]1CCCN1C(=O)[C@H](N)Cc1ccc2ccccc2c1)C(=O)O [Example 22, DNal-Pro-Pro-Gly-Thi-Ser-DPhe-Thi-Arg] (H-[d2Nal]PPG[2Thi]S[dF][2Thi]R-OH)
pA2 /RUT (antagonist potency) [2]: 5.6

N=C(N)NCCC[C@H](NC(=O)[C@H](Cc1cccs1)NC(=O)[C@@H](Cc1ccccc1)NC(=O)[C@H](CO)NC(=O)[C@H](Cc1cccs1)NC(=O)CNC(=O)[C@@H]1CCCN1C(=O)[C@@H]1CCCN1C(=O)[C@H](CCCNC(=N)N)NC(=O)[C@H](CCCCN)NC(=O)[C@@H](N)CCCCN)C(N)=O [Example 54, Lys-Lys-Arg-Pro-Pro-Gly-Thi-Ser-DPhe-Thi-Arg-NH2] (H-KKRPPG[2Thi]S[dF][2Thi]R-NH2)
pA2 /RUT: agonist potency as percent of BK potency [2]: 0.02%

N=C(N)NCCC[C@@H](N)C(=O)N[C@@H](CCCNC(=N)N)C(=O)N1CCC[C@H]1C(=O)N1CCC[C@H]1C(=O)NCC(=O)N[C@@H](Cc1cccs1)C(=O)N[C@@H](CO)C(=O)N[C@H](Cc1ccccc1)C(=O)N[C@@H](Cc1cccs1)C(=O)N[C@H](CCCNC(=N)N)C(N)=O [Example 57, DArg-Arg-Pro-Pro-Gly-Thi-Ser-DPhe-Thi-DArf-NH2] (H-[dR]RPPG[2Thi]S[dF][2Thi][dR]-NH2)
pA2 /RUT: agonist potency as percent of BK potency ([2]; isolated rat uterus): 0.003%
